The record followed here is patent US20090264415A2 (priority 2004, published 2009).

The first series deals with phosphodiesterase-4 (PDE-4) extract from U937 cells. Nature of the series: Phosphodiesterase-4 inhibiting activity (isotopic two-step method). It counts as biochemical. As to conditions: @ 0.3 μM.
In the case of `COc1ccc(-c2ccc3ncnc(N4CCN(C(=O)Nc5cccc(Cl)c5)CC4)c3n2)cc1OC(C)C` [Example 214, 4-[N-(3-chloro-phenylcarbamoyl)-piperazin-1-yl]-6-(3-isopropoxy-4-methoxy-phenyl)-pyrido[3,2-d]pyrimidine], the “PDE-4 (% inhibition)” value came to 61% @ 0.3 μM.

Still in this series, the particulars now being: @ 10 μM.
For the compound `COc1ccc(-c2ccc3nc(N)nc(NCCNC(=O)Nc4cccc(C)c4)c3n2)cc1OC` [Example 261, 2-amino-4-[(3-methylphenylcarbamoyl)-ethylenediamine-1-N-yl]-6-(3,4-dimethoxyphenyl)-pyrido[3,2-d]pyrimidine], the “PDE-4 (% inhibition)” value turned out to be 86% @ 10 μM.

A further series deals with production of human TNF-α by PBMC in response to LPS. Nature of the series: TNF-α assay (LPS-stimulated PBMC, sandwich ELISA). As to conditions: Homo sapiens, PBMC; LPS 1 μg/ml, 72 hours; read-out: TNF α. It counts as cell-based. A digest of the protocol:
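Human PBMC isolated from heparinised blood by density gradient (10^6 cells/ml) stimulated with LPS at 1 μg/ml final, with test compound at 0.1, 1 and 10 μM, 72 h at 37° C, 5% CO2. Supernatant TNF-α quantified by sandwich ELISA against recombinant standard curve; % suppression calculated.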
With `COc1ccc(-c2ccc3ncnc(N4CCN(C(=O)Nc5cccc(Cl)c5)CC4)c3n2)cc1OC(C)C` [Example 214, 4-[N-(3-chloro-phenylcarbamoyl)-piperazin-1-yl]-6-(3-isopropoxy-4-methoxy-phenyl)-pyrido[3,2-d]pyrimidine], the IC50 is 300 nM.

Take `COc1ccc(-c2ccc3nc(N)nc(NCCNC(=O)Nc4cccc(C)c4)c3n2)cc1OC` [Example 261, 2-amino-4-[(3-methylphenylcarbamoyl)-ethylenediamine-1-N-yl]-6-(3,4-dimethoxyphenyl)-pyrido[3,2-d]pyrimidine]: the IC50 worked out at 800 nM.

The subject of another series is peripheral blood mononuclear cells (PBMC) stimulated with allogeneic PBMC or EBV-transformed human B cells (RPMI1788). Nature of the series: Mixed lymphocyte reaction (MLR) assay. As to conditions: Homo sapiens, RPMI-1788; 50% suppression of the MLR, [3H]-thymidine incorporation; read-out: MLR. It counts as cell-based. A digest of the protocol:
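Compounds, held as 10 mM DMSO stocks and diluted in culture medium, were added to PBMC stimulated by 30 Gy-irradiated allogeneic PBMC or RPMI1788 cells. Proliferation was read as [3H]-thymidine uptake (1 μCi, final 16 h) after 5 days at 37° C. Inhibition was derived from cpm.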
A general note: Dividing cells build labelled thymidine or BrdU into new DNA.
As to `COc1ccc(-c2ccc3ncnc(N4CCN(C(=O)Nc5cccc(Cl)c5)CC4)c3n2)cc1OC(C)C` [Example 214, 4-[N-(3-chloro-phenylcarbamoyl)-piperazin-1-yl]-6-(3-isopropoxy-4-methoxy-phenyl)-pyrido[3,2-d]pyrimidine], the IC50 turned out to be 50 nM.

As to `COc1ccc(-c2ccc3nc(N)nc(NCCNC(=O)Nc4cccc(C)c4)c3n2)cc1OC` [Example 261, 2-amino-4-[(3-methylphenylcarbamoyl)-ethylenediamine-1-N-yl]-6-(3,4-dimethoxyphenyl)-pyrido[3,2-d]pyrimidine], the IC50 turned out to be 80 nM.

Tested on in the next series: not given
Experiment: not given
Details: not given
Regarding `NC(=O)c1nc(Cl)ccc1N`, the melting point (in general, the temperature, or range, at which the solid turns liquid) fell in the range of 176 to 177 °C.

`Nc1nc2ccc(Cl)nc2c(=O)[nH]1` gave a melting point above 330 °C.

Turning to `CC(=O)Nc1nc2ccc(Cl)nc2c(=O)[nH]1`, the melting point is 317 to 319 °C.

`CCOc1nc(NC(C)=O)nc2ccc(Cl)nc12` had a melting point of 233 °C.

As to `CCCOc1nc(NC(C)=O)nc2ccc(Cl)nc12`, the melting point came out at 191 °C.

Regarding `CC(=O)Nc1nc(OC(C)C)c2nc(Cl)ccc2n1`, the melting point worked out at 244 °C.

For `CC(=O)Nc1nc(OCC(C)C)c2nc(Cl)ccc2n1`, the melting point came out at 168 °C.

Regarding `CCC(C)Oc1nc(NC(C)=O)nc2ccc(Cl)nc12` (stereo not drawn), the melting point was in the range of 143 to 144 °C.

`CCCCCOc1nc(NC(C)=O)nc2ccc(Cl)nc12` gave a melting point of 174 °C.

For `CCOc1nc(N)nc2ccc(-c3ccccc3F)nc12`, the melting point was 182 °C.

Take `CCOc1nc(N)nc2ccc(-c3cccc(F)c3)nc12`: the melting point turned out to be 174 °C.

Consider `CCOc1nc(N)nc2ccc(-c3ccc(F)cc3)nc12`, for which the melting point is 188 to 189 °C.

Consider `CC(C)Oc1nc(N)nc2ccc(-c3cccc(F)c3)nc12`, for which the melting point fell in the range of 200 to 201 °C.

As for `CC(=O)Nc1nc(OC(C)C)c2nc(-c3ccc(F)cc3)ccc2n1`, the melting point lay in the range of 196 to 197 °C.

The compound `CC(C)Oc1nc(N)nc2ccc(-c3ccc(F)cc3)nc12` had a melting point of 191 to 192 °C.

As for `CCCCOc1nc(N)nc2ccc(-c3ccccc3F)nc12`, the melting point lay within 147 to 148 °C.

For the compound `CCCCOc1nc(N)nc2ccc(-c3cccc(F)c3)nc12`, the melting point is 160 to 161 °C.

In turn, `CCCCOc1nc(NC(C)=O)nc2ccc(-c3ccc(F)cc3)nc12` showed a melting point of 170 °C.

On to `CCCCOc1nc(N)nc2ccc(-c3ccc(F)cc3)nc12`, for which the melting point was 172 to 173 °C.

For `CC(C)COc1nc(N)nc2ccc(-c3ccccc3F)nc12`, the melting point is 165 °C.

As to `CC(C)COc1nc(N)nc2ccc(-c3cccc(F)c3)nc12`, the melting point came out at 185 °C.

`CC(C)COc1nc(N)nc2ccc(-c3ccc(F)cc3)nc12` displayed a melting point of 196 °C.

In turn, `CCC(C)Oc1nc(N)nc2ccc(-c3ccccc3F)nc12` (stereo not drawn) came in with a melting point of 159 °C.

Regarding `CCC(C)Oc1nc(N)nc2ccc(-c3cccc(F)c3)nc12` (stereo not drawn), the melting point lay in the range of 158 to 159 °C.

`CCC(C)Oc1nc(N)nc2ccc(-c3ccc(F)cc3)nc12` (stereo not drawn): the melting point came to 148 °C.

As for `CCCCCOc1nc(N)nc2ccc(-c3ccccc3F)nc12`, the melting point lay within 136 to 137 °C.

Turning to `CCCCCOc1nc(N)nc2ccc(-c3cccc(F)c3)nc12`, the melting point was 142 to 143 °C.

As for `Nc1nc(OCc2ccccc2)c2nc(-c3ccccc3F)ccc2n1`, the melting point is 200 to 202 °C.

Regarding `Nc1nc(OCc2ccccc2)c2nc(-c3cccc(F)c3)ccc2n1`, the melting point was 199 to 200 °C.

Compound `Nc1nc(OCc2ccccc2)c2nc(-c3ccc(F)cc3)ccc2n1` registered a melting point of 225 °C.
